Measured values reported in patent US20080249077A1, “17.Beta.-Fluoromethoxycarbonyl-Androst-4-En-3-One Compounds With a 17.Alpha.-Carbonate Sustituent” (priority 2005, published 2008).

Tests used:
[1] = molecular target: T1, glucocorticoid receptor (Homo sapiens, UniProt P04150); experiment: Assay for transrepression activity of the glucocorticoid agonists (NF-κB responsive ELAM promoter-sPAP reporter, TNF-stimulated A549 cells); type: cell-based; conditions: compound 1 hour at 37° C., then TNF 10 ng/ml for 16 hours, read-out: pIC50 (transrepression) (converted)
T1 construct: A549 cells stably transfected with a reporter gene; endogenous in cells; host or cells: A549 cells
T1 sequence (P04150 1-777): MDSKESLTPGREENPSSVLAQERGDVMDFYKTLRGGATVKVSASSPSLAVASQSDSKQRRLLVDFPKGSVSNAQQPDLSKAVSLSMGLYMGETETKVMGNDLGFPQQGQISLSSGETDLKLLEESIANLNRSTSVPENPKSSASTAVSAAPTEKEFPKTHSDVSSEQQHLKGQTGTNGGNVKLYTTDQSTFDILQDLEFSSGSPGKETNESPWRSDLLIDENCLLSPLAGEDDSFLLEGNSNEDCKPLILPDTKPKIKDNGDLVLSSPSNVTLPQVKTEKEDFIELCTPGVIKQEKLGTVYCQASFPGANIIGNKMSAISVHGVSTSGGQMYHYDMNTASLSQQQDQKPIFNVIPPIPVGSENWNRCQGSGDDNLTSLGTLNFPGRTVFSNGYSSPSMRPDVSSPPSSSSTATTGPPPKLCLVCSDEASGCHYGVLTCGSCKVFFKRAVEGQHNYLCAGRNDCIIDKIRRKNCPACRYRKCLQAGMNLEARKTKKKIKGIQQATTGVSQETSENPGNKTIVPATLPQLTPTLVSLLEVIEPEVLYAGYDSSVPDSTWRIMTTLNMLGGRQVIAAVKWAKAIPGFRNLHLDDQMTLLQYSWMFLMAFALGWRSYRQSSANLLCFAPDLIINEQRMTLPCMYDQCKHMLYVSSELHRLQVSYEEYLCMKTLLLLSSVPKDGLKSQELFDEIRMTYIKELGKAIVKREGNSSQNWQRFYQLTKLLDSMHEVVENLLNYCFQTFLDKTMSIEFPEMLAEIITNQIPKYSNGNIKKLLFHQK
Description: Assay for Transrepression Activity of the Glucocorticoid Agonists
A549 cells stably transfected with a reporter gene containing the NF-κB responsive elements from the ELAM gene promoter coupled to sPAP (secreted alkaline phosphatase) are treated with test compounds at appropriate doses for 1 hour at 37° C. The cells are then stimulated with tumour necrosis factor (TNF, 10 ng/ml) for 16 hours, at which time the amount of alkaline phosphatase produced is measured by a standard colourimetric assay. Dose response curves were constructed from which EC50 values were estimated.

[2] = molecular target: T1, glucocorticoid receptor; experiment: Assay for transactivation activity of the glucocorticoid agonists (MMTV-LTR renilla luciferase reporter in A549 cells); type: cell-based; conditions: compound 6 hour at 37° C., read-out: maximal response relative to Dexamethasone (100%) (transactivation)
Description: Assay for Transactivation Activity of the Glucocorticoid Agonists
The functional assay based on that described by R. J. H. Austin et al., Eur Resp J. (2002), 20, 1386-1392 measures the ability of compounds to directly transactivate gene expression. A549 cells stably transfected with a reporter gene containing the glucocorticoid responsive region of the mouse mammary tumour virus long terminal repeat (MMTV-LTR) coupled to renilla luciferase were treated with test compounds at appropriate doses for 6 hour at 37° C. The amount of luciferase activity present within the cells is then determined by measuring the light emitted following incubation with a suitable substrate. Dose response curves were constructed from which EC50 values were estimated and from which maximal responses are calculated relative to Dexamethasone (100%).

| Compound | IC50 [1] | Emax [2] |
| --- | --- | --- |
| CC(C)C(C)OC(=O)O[C@]1(C(=O)OCF)[C@H](C)C[C@H]2[C@@H]3C[C@H](F)C4=CC(=O)C=C[C@]4(C)[C@@]3(F)[C@@H](O)C[C@@]21C (stereo partly drawn) [Example 9, Fluoromethyl(6α,11β,16α,17α)-17-({[(1,2-dimethylpropyl)oxy]carbonyl}oxy)-6,9-difluoro-11-hydroxy-16-methyl-3-oxoandrosta-1,4-diene-17-carboxylate] | < 0.1 nM | < 25% |
| CCC(CC)COC(=O)O[C@]1(C(=O)OCF)[C@H](C)C[C@H]2[C@@H]3C[C@H](F)C4=CC(=O)C=C[C@]4(C)[C@@]3(F)[C@@H](O)C[C@@]21C [Example 6, Fluoromethyl(6α,11β,16α,17α)-17-({[(2-ethylbutyl)oxy]carbonyl}oxy)-6,9-difluoro-11-hydroxy-16-methyl-3-oxoandrosta-1,4-diene-17-carboxylate] | < 0.1 nM | < 25% |
| C[C@@H]1C[C@H]2[C@@H]3C[C@H](F)C4=CC(=O)C=C[C@]4(C)[C@@]3(F)[C@@H](O)C[C@]2(C)[C@@]1(OC(=O)OC(C)(C)C)C(=O)OCF [Example 1, Fluoromethyl(6α,11β,16α,17α)-17-({[(1,1-dimethylethyl)oxy]carbony}oxy)-6,9-difluoro-11-hydroxy-16-methyl-3-oxoandrosta-1,4-diene-17-carboxylate] | < 0.1 nM | < 25% |
| C[C@@H]1C[C@H]2[C@@H]3C[C@H](F)C4=CC(=O)C=C[C@]4(C)[C@@]3(F)[C@@H](O)C[C@]2(C)[C@@]1(OC(=O)OCC1CCCC1)C(=O)OCF [Example 15, Fluoromethyl(6α,11β,16α,17α)-17-({[(cyclopentylmethyl)oxy]carbonyl}oxy)-6,9-difluoro-11-hydroxy-16-methyl-3-oxoandrosta-1,4-diene-17-carboxylate] | < 0.1 nM | < 25% |
| CC(OC(=O)O[C@]1(C(=O)OCF)[C@H](C)C[C@H]2[C@@H]3C[C@H](F)C4=CC(=O)C=C[C@]4(C)[C@@]3(F)[C@@H](O)C[C@@]21C)C1CCCC1 (stereo partly drawn) [Example 21A, Fluoromethyl(6α,11β,16α,17α)-17-({[(1-cyclopentylethyl)oxy]carbonyl}oxy)-6,9-difluoro-11-hydroxy-16-methyl-3-oxoandrosta-1,4-diene-17-carboxylate] | < 0.1 nM |  |
| C[C@@H]1C[C@H]2[C@@H]3C[C@H](F)C4=CC(=O)C=C[C@]4(C)[C@@]3(F)[C@@H](O)C[C@]2(C)[C@@]1(OC(=O)OC1CCCC(C)(C)C1)C(=O)OCF (single isomer, unassigned) [Example 19A, Fluoromethyl(6α,11β,16α,17α)-17-({[(3,3-dimethylcyclohexyl)oxy]carbonyl}oxy)-6,9-difluoro-11-hydroxy-16-methyl-3-oxoandrosta-1,4-diene-17-carboxylate] | < 0.1 nM |  |
| C[C@@H]1C[C@H]2[C@@H]3C[C@H](F)C4=CC(=O)C=C[C@]4(C)[C@@]3(F)[C@@H](O)C[C@]2(C)[C@@]1(OC(=O)OCC(C)(C)C)C(=O)OCF [Example 7, Fluoromethyl(6α,11β,16α,17α)-17-({[(2,2-dimethylpropyl)oxy]carbonyl}oxy)-6,9-difluoro-11-hydroxy-16-methyl-3-oxoandrosta-1,4-diene-17-carboxylate] |  | < 25% |
| C[C@@H]1C[C@H]2[C@@H]3C[C@H](F)C4=CC(=O)C=C[C@]4(C)[C@@]3(F)[C@@H](O)C[C@]2(C)[C@@]1(OC(=O)OC1CCCC(C)(C)C1)C(=O)OCF (stereo partly drawn) [Example 19, Fluoromethyl(6α,11β,16α,17α)-17-({[(3,3-dimethylcyclohexyl)oxy]carbonyl}oxy)-6,9-difluoro-11-hydroxy-16-methyl-3-oxoandrosta-1,4-diene-17-carboxylate] |  | < 25% |
| CC(OC(=O)O[C@]1(C(=O)OCF)[C@H](C)C[C@H]2[C@@H]3C[C@H](F)C4=CC(=O)C=C[C@]4(C)[C@@]3(F)[C@@H](O)C[C@@]21C)C(C)(C)C (single isomer, unassigned) [Example 23A, Fluoromethyl(6α,11β,16α,17α)-6,9-difluoro-11-hydroxy-16-methyl-3-oxo-17-({[(1,2,2-trimethylpropyl)oxy]carbonyl}oxy)androsta-14-diene-17-carboxylate] | < 0.1 nM |  |
| C[C@@H]1C[C@H](C)C[C@H](OC(=O)O[C@]2(C(=O)OCF)[C@H](C)C[C@H]3[C@@H]4C[C@H](F)C5=CC(=O)C=C[C@]5(C)[C@@]4(F)[C@@H](O)C[C@@]32C)C1 [Example 17, Fluoromethyl(6α,11β,16α,17α)-17-[({[(1S,3R,5S)-3,5-dimethylcyclohexyl]oxy}carbonyl)oxy]-6,9-difluoro-11-hydroxy-16-methyl-3-oxoandrosta-1,4-diene-17-carboxylate] |  | < 25% |
| CCCC(CCC)OC(=O)O[C@]1(C(=O)OCF)[C@H](C)C[C@H]2[C@@H]3C[C@H](F)C4=CC(=O)C=C[C@]4(C)[C@@]3(F)[C@@H](O)C[C@@]21C [Example 22, Fluoromethyl(6α,11β,16α,17α)-6,9-difluoro-11-hydroxy-16-methyl-3-oxo-17-({[(1-propylbutyl)oxy]carbonyl}oxy)androsta-1,4-diene-17-carboxylate] |  | < 25% |
| C[C@@H]1C[C@H]2[C@@H]3C[C@H](F)C4=CC(=O)C=C[C@]4(C)[C@@]3(F)[C@@H](O)C[C@]2(C)[C@@]1(OC(=O)OC1CCCCCCC1)C(=O)OCF [Example 16, Fluoromethyl(6α,11β,16α,17α)-17-{[(cyclooctyloxy)carbonyl]oxy}-6,9-difluoro-11-hydroxy-16-methyl-3-oxoandrosta-1,4-diene-17-carboxylate] |  | < 25% |
